The values that follow come from ChEMBL document CHEMBL4043062, “Recent developments in the isolation, biological function, biosynthesis, and synthesis of phenazine natural products” (Bioorg Med Chem, 2017).

Molecules are shown by their SMILES. In brackets after ≈: the same amount, converted by molar mass.

The assay relates to Mycobacterium tuberculosis. The assay can be described thus: Antitubercular activity against rifampicin-resistant Mycobacterium tuberculosis ATCC 35338 harboring His-526-Tir mutation in rpoB gene after 7 days by Resazurin microtitre assay. In kind it is functional. Background: The colour change of resazurin is a common sign of viable cells or microbes.

For orientation: MIC means the lowest concentration found to suppress growth. A higher MIC goes with a less susceptible organism. For the compound `C=CCC1Cc2c(c3ccccc3c3nc4ccccc4nc23)OC1(C)C` (stereo unspecified), the minimum inhibitory concentration (MIC) is 2.2 µM (≈ 0.78 µg/mL). This counts as single-digit micromolar.
